Results from paper PMC12277872, “Design, Synthesis, In Vitro, and In Silico Studies of 5‐(Diethylamino)‐2‐Formylphenyl Naphthalene‐2‐Sulfonate Based Thiosemicarbazones as Potent Anti‐Alzheimer Agents” (Archiv Der Pharmazie, 2025).

Assays:
[1] = target: T1, hMAO‐A (Homo sapiens, UniProt P21397); experiment: In vitro fluorometric MAO-A inhibition assay (tyramine substrate, horseradish peroxidase coupling); type: biochemical
T1 construct: purchased Sigma Aldrich M7316
T1 sequence (P21397 1-527): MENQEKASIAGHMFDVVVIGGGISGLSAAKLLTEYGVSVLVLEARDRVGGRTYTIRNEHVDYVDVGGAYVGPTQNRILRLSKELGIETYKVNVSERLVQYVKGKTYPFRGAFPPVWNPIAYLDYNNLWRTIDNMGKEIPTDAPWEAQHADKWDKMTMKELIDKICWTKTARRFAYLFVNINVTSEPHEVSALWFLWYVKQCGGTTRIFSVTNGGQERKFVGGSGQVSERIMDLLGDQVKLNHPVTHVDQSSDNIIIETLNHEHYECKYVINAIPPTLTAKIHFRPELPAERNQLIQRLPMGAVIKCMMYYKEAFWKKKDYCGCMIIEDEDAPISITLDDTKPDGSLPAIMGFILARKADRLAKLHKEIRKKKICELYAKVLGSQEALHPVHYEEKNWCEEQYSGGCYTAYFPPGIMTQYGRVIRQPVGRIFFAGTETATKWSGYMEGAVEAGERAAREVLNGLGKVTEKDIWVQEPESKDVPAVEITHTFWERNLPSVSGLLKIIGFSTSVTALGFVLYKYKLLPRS
Procedure: (§1) The in vitro fluorometric technique was used to assess each newly generated substance's inhibitory activity against hMAO‐A and hMAO‐B. In a horseradish peroxidase coupling reaction, the oxired reagent (10‐acetyl‐3,7‐dihydroxyphenoxazine) detects H2O2, a result of the oxidative deamination of tyramine, which is utilized as an MAO substrate. The test was carried out in two steps. First, each compound's concentrations of 10^–3 and 10^–4 M were investigated. […] These parameters of this study were made as in previous studies. We purchased these two enzymes from Sigma Aldrich (M7316‐Monoamine Oxidase A human and M7441‐ […]).

[2] = target: T2, BChE from equine serum (Equus caballus, UniProt P81908); experiment: biochemical; conditions: for IC50: BChI substrate, DTNB, 412 nm, Tris/HCl pH 8.0; for Ki: read-out: K i (nM) BChE
T2 construct: C7512‐ BChE from equine serum; purchased Sigma Aldrich C7512; host or cells: equine serum
Procedure: (§2) Both […] (AChI) and butyrylcholine iodide (BChI) were used as substrates for the enzymatic hydrolysis reactions, with 5,5′‐dithiobis(2‐nitrobenzoic acid) (DTNB) serving as a common reagent for detecting the activities of AChE and BChE. The assay was conducted: 1 mL of 1.0 M Tris/HCl buffer (pH 8.0) was mixed with 10 μL of the sample solution in deionized water. To this mixture, 50 μL of AChE or BChE enzyme solution was added, and the reaction was incubated at room temperature for 10 min. After incubation, 50 μL of DTNB (0.5 mM) was introduced, followed by the addition of 50 μL of either AChI or BChI (10 mM), initiating the enzymatic reaction. The hydrolysis of the substrates was monitored spectrophotometrically by measuring the absorbance at 412 nm, corresponding to the formation of the yellow‐colored 5‐thio‐2‐nitrobenzoate anion. This color change is due to the reaction of DTNB with thiocholine released during the hydrolysis of AChI or BChI. For every inhibitor that was utilized, IC50 and K i values were determined. In this study, C7512‐ BChE from equine serum and C3389‐ AChE from Electrophorus electricus (electric eel) were purchased from Sigma Aldrich.

[3] = target: T3, AChE from Electrophorus electricus (electric eel) (Electrophorus electricus, UniProt O42275); experiment: biochemical; conditions: for IC50: AChI substrate, DTNB, 412 nm, Tris/HCl pH 8.0; for Ki: read-out: K i (nM) AChE
T3 construct: purchased Sigma Aldrich C3389
Procedure: as §2, with “The hydrolysis of the substrates was monitored spectrophotometrically by measuring the absorbance at 412 nm, corresponding to the formation of the yellow‐colored 5‐thio‐2‐nitrobenzoate anion.” left out

[4] = target: T4, hMAO‐B (Homo sapiens, UniProt P27338); experiment: In vitro fluorometric MAO-B inhibition assay (tyramine substrate, horseradish peroxidase coupling); type: biochemical
T4 construct: purchased Sigma Aldrich M7441
T4 sequence (P27338 1-520): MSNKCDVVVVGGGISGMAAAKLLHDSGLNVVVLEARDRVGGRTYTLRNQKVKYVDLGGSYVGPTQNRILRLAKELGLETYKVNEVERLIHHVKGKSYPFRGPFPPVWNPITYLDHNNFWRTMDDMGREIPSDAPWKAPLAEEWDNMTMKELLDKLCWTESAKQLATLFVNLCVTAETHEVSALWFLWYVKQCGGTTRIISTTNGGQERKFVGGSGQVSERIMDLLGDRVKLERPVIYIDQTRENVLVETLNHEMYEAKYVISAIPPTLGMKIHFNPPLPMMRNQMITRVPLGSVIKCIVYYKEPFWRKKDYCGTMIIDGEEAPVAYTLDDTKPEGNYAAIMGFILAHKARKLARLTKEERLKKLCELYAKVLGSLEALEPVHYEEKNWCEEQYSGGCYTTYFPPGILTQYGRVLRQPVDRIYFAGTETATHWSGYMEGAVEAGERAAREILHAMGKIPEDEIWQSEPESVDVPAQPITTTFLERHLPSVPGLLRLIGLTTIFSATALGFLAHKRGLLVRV
Procedure: as §1

T2 sequence (P81908 whole entry): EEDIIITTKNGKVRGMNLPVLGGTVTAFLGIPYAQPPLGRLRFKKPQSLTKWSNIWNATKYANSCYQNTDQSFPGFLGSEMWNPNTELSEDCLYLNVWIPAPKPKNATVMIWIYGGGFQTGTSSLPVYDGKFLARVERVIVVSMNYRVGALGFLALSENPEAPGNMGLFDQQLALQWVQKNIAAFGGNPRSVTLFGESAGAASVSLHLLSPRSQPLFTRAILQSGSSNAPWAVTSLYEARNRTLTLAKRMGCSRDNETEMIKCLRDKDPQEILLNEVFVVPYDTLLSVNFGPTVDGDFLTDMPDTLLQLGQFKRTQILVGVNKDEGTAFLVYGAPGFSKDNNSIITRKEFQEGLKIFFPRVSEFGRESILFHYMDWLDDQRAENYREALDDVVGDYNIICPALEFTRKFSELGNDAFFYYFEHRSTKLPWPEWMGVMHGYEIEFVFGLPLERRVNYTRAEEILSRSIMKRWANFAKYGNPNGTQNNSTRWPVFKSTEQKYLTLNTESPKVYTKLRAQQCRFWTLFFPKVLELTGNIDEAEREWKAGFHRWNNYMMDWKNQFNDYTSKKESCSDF
T3 sequence (O42275 24-633): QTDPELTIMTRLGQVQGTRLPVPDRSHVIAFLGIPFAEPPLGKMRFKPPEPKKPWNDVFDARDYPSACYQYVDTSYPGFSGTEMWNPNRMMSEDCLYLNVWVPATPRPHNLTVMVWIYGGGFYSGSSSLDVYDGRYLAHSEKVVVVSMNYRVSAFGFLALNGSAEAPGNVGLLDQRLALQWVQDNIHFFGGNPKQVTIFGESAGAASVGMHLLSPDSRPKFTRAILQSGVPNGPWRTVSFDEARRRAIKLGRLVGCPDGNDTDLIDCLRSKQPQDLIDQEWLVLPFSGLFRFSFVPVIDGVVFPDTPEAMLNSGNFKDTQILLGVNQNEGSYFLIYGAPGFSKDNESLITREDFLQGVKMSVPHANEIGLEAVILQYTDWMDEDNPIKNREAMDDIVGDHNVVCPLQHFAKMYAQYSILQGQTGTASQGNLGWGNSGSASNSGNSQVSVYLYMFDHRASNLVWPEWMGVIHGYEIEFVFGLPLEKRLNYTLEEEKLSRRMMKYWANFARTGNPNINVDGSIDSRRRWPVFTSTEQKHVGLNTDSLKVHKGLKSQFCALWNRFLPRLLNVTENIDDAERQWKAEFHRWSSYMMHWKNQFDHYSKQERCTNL

Compound | IC50 [1] [nM] | IC50 [2] [nM] | Ki [2] [nM] | IC50 [3] [nM] | Ki [3] [nM] | IC50 [4] [nM]
CCN(CC)c1ccc(/C=N/NC(=S)Nc2cccc(Cl)c2)c(OS(=O)(=O)c2ccc3ccccc3c2)c1 [Compound 5e, (E)‐2‐({2‐[(3‐chlorophenyl)carbamothioyl]hydrazono}methyl)‐5‐(diethylamino)phenyl naphthalene‐2‐sulfonate] | 117 ± 7.33 | 208 ± 7.53 | 195 ± 11.5 | 31 ± 4.16 | 25.4 ± 3.32 | > 1000
CCN(CC)c1ccc(/C=N/NC(=S)NC)c(OS(=O)(=O)c2ccc3ccccc3c2)c1 [Compound 5m, (E)‐5‐(Diethylamino)‐2‐{[2‐(methylcarbamothioyl)hydrazono]methyl}phenyl naphthalene‐2‐sulfonate] | 132 ± 4.96 | 214 ± 7.13 | 193 ± 11.6 | 38.5 ± 3.21 | 30.2 ± 5.02 | 369 ± 11.2
CCN(CC)c1ccc(/C=N/NC(=S)Nc2ccccc2)c(OS(=O)(=O)c2ccc3ccccc3c2)c1 [Compound 5c, (E)‐5‐(Diethylamino)‐2‐{[2‐(phenylcarbamothioyl)hydrazono]methyl}phenyl naphthalene‐2‐sulfonate] | 189 ± 6.46 | 218 ± 8.41 | 183 ± 15 | 38.4 ± 5.03 | 25.4 ± 5.32 | 296 ± 6.01
CCN(CC)c1ccc(/C=N/NC(=S)Nc2cccc(Cl)c2Cl)c(OS(=O)(=O)c2ccc3ccccc3c2)c1 [Compound 5a, (E)‐2‐({2‐[(2,3‐Dichlorophenyl)carbamothioyl]hydrazono}methyl)‐5‐(diethylamino)phenyl naphthalene‐2‐sulfonate] | 104 ± 4.58 | 125 ± 9.13 | 101 ± 22.4 | 14.9 ± 1.54 | 11.4 ± 3.06 | 391 ± 9.04
CCN(CC)c1ccc(/C=N/NC(=S)Nc2cccc(OC)c2)c(OS(=O)(=O)c2ccc3ccccc3c2)c1 [Compound 5k, (E)‐5‐(Diethylamino)‐2‐({2‐[(3‐methoxyphenyl)carbamothioyl]hydrazono}methyl)phenyl naphthalene‐2‐sulfonate] | 145 ± 8.03 | 253 ± 9.15 | 205 ± 10.2 | 116 ± 8.42 | 95.8 ± 9.54 | > 1000
CCN(CC)c1ccc(/C=N/NC(=S)NCc2ccc(Cl)cc2)c(OS(=O)(=O)c2ccc3ccccc3c2)c1 [Compound 5q, (E)‐2‐({2‐[(4‐Chlorobenzyl)carbamothioyl]hydrazono}methyl)‐5‐(diethylamino)phenyl naphthalene‐2‐sulfonate] | 119 ± 9.24 | 202 ± 14.9 | 183 ± 11.5 | 19.3 ± 1.28 | 17.6 ± 3.34 | 308 ± 6.07
